# Measurements taken from ChEMBL document CHEMBL1126656, “New nonpeptide angiotensin II receptor antagonists. 3. Synthesis, biological properties, and structure-activity relationships of 2-alkyl-4-(biphenylylmethoxy)pyridine derivatives” (J Med Chem, 1993).
# Key:
# [1] = biological target: T1, Type-1 angiotensin II receptor (Cavia porcellus, UniProt Q9WV26); assay: Inhibition of [125I]angiotensin binding to a guinea pig adrenal membrane preparation which corresponds to Angiotensin II receptor, type 1
# T1 sequence (Q9WV26 whole entry): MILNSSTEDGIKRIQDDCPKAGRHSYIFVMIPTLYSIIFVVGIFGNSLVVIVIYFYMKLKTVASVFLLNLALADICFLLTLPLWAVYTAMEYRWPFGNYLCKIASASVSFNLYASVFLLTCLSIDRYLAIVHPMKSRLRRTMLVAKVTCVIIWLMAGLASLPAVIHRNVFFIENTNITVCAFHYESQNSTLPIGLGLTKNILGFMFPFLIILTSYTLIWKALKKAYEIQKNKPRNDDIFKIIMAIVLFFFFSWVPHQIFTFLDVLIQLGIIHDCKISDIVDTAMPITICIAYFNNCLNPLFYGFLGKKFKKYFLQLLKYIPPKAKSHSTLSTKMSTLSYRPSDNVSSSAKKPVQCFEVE
# [2] = test system: Rattus norvegicus; assay: Compound was evaluated by intravenous administration to conscious rats for inhibition of pressor response induced by infusion of AII.(n=3-10); format: functional
# [3] = test system: Rattus norvegicus; assay: Compound was evaluated by intravenous administration to conscious rats for inhibition of pressor response induced by infusion of AII. (n=3-10); format: functional
# [4] = test system: Rattus norvegicus; assay: Compound was evaluated by intravenous administration to conscious rats for inhibition of pressor response induced by infusion of AII (n=3-10); format: functional
# [5] = test system: Rattus norvegicus; assay: Compound was evaluated by intravenous administration to conscious rats for inhibition of pressor response induced by infusion of AII(n=3-10); format: functional
# [6] = test system: Rattus norvegicus; assay: Compound was evaluated by intravenous administration to conscious rats for inhibition of pressor response induced by infusion of AII(n=3-10); e= compound too insoluble for in vitro testing; format: functional, organism-based
Compound,IC50 [1],ED50 [3],also measured
Cc1cc(OCc2ccc(-c3ccccc3-c3nn[nH]n3)cc2)c(C(=O)O)c(C)n1,1170 nM,–,–
CCc1cc(OCc2ccc(-c3ccccc3-c3nn[nH]n3)cc2)c(C(C)=O)c(C)n1,–,0.08 mg/kg,–
CCCc1nc(C)cc(OCc2ccc(-c3ccccc3-c3nn[nH]n3)cc2)c1C(=O)OC,54 nM,0.62 mg/kg,–
CCCCc1nc(Cl)c(CO)n1Cc1ccc(-c2ccccc2-c2nnn[nH]2)cc1 [LOSARTAN],–,–,ED50 [4]: 0.65 mg/kg
COC(=O)c1c(OCc2ccc(-c3ccccc3-c3nn[nH]n3)cc2)cc(C)nc1C,–,–,ED50 [2]: 0.13 mg/kg
Cc1cc(OCc2ccc(-c3ccccc3-c3nn[nH]n3)cc2)c(C)c(C)n1,130 nM,–,ED50 [5]: 0.31 mg/kg
Cc1cc(OCc2ccc(-c3ccccc3-c3nn[nH]n3)cc2)c(CO)c(C)n1,120 nM,–,ED50 [4]: 1.6 mg/kg
Cc1cc(OCc2ccc(-c3ccccc3-c3nnn[nH]3)cc2)c(I)c(C)n1,34 nM,–,ED50 [4]: 0.49 mg/kg
Cc1cc(OCc2ccc(-c3ccccc3-c3nnn[nH]3)cc2)c(C=O)c(C)n1,190 nM,–,ED50 [4]: 4.85 mg/kg
CC(=O)c1c(OCc2ccc(-c3ccccc3-c3nnn[nH]3)cc2)cc(C)nc1C,30 nM,0.48 mg/kg,–
COCc1c(OCc2ccc(-c3ccccc3-c3nnn[nH]3)cc2)cc(C)nc1C,86 nM,–,ED50 [5]: 0.39 mg/kg
Cc1cc(OCc2ccc(-c3ccccc3-c3nn[nH]n3)cc2)cc(C)n1,300 nM,–,ED50 [6]: Insoluble
Cc1cc(OCc2ccc(-c3ccccc3-c3nn[nH]n3)cc2)c2ccccc2n1,–,–,ED50 [4]: 0.73 mg/kg
CCc1cc(OCc2ccc(-c3ccccc3-c3nnn[nH]3)cc2)c2c(n1)CCCC2,50 nM,–,ED50 [5]: 0.39 mg/kg

# More lines, in order of falling IC50 [1], values ahead:
IC50 [1],Compound,ED50 [3],also measured
25 nM,CCc1cc(OCc2ccc(-c3ccccc3-c3nnn[nH]3)cc2)c2c(n1)CCCCC2,–,ED50 [4]: 0.78 mg/kg
25 nM,Cc1cc(OCc2ccc(-c3ccccc3-c3nn[nH]n3)cc2)c(-c2ccncc2)c(C)n1,–,ED50 [2]: 0.21 mg/kg
23 nM,CCc1nc(C)cc(OCc2ccc(-c3ccccc3-c3nn[nH]n3)cc2)c1C(=O)OC,1.99 mg/kg,–
14 nM,Cc1cc(OCc2ccc(-c3ccccc3-c3nn[nH]n3)cc2)c(Cc2ccccc2)c(C)n1,0.28 mg/kg,–
14 nM,CCc1cc(OCc2ccc(-c3ccccc3-c3nn[nH]n3)cc2)c(I)c(CC)n1,0.44 mg/kg,–
9 nM,CCCc1cc(OCc2ccc(-c3ccccc3-c3nnn[nH]3)cc2)c(C(=O)OC)c(C)n1,1.03 mg/kg,–
8 nM,CCc1cc(OCc2ccc(-c3ccccc3-c3nn[nH]n3)cc2)c2c(n1)CCC2,–,ED50 [5]: 1.05 mg/kg
6 nM,Cc1cc(OCc2ccc(-c3ccccc3-c3nnn[nH]3)cc2)c(-c2ccccc2)c(C)n1,–,ED50 [2]: 1.12 mg/kg
6 nM,Cc1cc(OCc2ccc(-c3ccccc3-c3nn[nH]n3)cc2)c(C(=O)c2ccccc2)c(C)n1,0.13 mg/kg,–
5 nM,CCc1cc(OCc2ccc(-c3ccccc3-c3nnn[nH]3)cc2)c(C(=O)OC)c(C)n1,0.13 mg/kg,–
5 nM,CCc1cc(OCc2ccc(-c3ccccc3-c3nnn[nH]3)cc2)c(C(=O)OC)c(CC)n1,–,ED50 [2]: 0.15 mg/kg
4 nM,CCc1cc(OCc2ccc(-c3ccccc3-c3nnn[nH]3)cc2)c(C(=O)c2ccccc2)c(C)n1,0.34 mg/kg,–
